For one experiment, the target named is T1, PIK3CA (Homo sapiens, UniProt P42336).
T1 construct: endogenous in cells; host or cells: Jurkat cell lysate
In words: In vitro ELISA target engagement assay for PIK3CA in Jurkat cellular lysate (competition with PIK3CA Biotin Probe). Conditions: 1 hour at rt, then 500 nM PIK3CA Biotin Probe, read-out: Elisa Target Engagement Assay (TE50). Format: binding. An outline of the steps: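 Competition format in Jurkat lysate: compound (serial dilutions, top 200 μM) for 1 h at rt, then 500 nM final biotinylated PIK3CA probe for 1 h at rt. Sandwich ELISA with capture antibody and Neutravidin-HRP luminescence read-out measured probe-labelled PIK3CA, giving TE50.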
Background: ELISA stands for enzyme-linked immunosorbent assay.

In another experiment the target is T2, PIK3CA_C242 (Homo sapiens, UniProt P42336).
T2 construct: endogenous in cells; host or cells: Jurkat cell lysate
T2 sequence (P42336 whole entry): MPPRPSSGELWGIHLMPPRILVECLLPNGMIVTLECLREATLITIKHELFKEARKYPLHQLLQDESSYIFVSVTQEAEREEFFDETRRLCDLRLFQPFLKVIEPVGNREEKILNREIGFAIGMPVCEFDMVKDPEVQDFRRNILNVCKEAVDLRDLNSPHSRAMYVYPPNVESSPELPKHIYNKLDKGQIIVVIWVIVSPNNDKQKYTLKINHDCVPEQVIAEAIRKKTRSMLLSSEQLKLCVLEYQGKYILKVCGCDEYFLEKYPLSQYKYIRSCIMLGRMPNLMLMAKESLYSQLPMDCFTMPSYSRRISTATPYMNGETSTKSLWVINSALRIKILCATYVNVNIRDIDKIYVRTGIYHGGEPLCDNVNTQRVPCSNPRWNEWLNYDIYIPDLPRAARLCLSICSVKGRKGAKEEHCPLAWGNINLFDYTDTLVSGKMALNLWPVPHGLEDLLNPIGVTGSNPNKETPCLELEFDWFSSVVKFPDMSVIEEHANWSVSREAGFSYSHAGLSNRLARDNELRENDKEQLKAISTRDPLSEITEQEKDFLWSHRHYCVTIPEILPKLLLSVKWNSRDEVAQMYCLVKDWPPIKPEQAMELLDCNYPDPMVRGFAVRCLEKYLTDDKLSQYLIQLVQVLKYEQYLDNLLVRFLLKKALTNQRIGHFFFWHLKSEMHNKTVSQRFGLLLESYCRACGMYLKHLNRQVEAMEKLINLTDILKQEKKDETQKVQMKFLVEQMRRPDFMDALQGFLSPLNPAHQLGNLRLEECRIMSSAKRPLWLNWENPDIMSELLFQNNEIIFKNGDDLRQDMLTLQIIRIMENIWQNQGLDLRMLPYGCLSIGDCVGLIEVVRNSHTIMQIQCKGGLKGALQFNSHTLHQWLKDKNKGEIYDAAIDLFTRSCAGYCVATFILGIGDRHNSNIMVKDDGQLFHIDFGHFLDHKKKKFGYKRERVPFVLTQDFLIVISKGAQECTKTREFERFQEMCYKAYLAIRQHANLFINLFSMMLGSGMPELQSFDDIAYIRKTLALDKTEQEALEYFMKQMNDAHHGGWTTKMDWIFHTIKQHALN
T2 sequence (P27986 whole entry partner): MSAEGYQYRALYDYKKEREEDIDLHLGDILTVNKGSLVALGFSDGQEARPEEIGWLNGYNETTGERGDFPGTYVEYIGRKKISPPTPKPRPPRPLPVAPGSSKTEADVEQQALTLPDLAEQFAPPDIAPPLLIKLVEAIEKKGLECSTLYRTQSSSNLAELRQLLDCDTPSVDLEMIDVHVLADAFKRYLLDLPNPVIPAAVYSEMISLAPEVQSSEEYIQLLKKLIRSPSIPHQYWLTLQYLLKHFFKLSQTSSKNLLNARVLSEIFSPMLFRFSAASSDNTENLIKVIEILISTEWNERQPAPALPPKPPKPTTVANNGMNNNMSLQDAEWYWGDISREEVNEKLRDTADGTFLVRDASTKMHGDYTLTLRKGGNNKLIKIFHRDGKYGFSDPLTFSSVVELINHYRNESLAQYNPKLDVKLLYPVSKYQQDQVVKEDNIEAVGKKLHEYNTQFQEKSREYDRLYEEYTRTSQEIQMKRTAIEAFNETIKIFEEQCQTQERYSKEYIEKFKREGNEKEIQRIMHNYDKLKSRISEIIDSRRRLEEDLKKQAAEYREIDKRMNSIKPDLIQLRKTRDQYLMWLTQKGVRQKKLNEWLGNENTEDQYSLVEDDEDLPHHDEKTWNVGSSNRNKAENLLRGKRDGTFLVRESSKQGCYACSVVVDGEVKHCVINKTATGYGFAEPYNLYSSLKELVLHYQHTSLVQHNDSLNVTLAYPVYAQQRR
Briefly: Proteomic TE50 (IA-DTB / TMT mass spectrometry) in Jurkat cell lysate. Format: binding. Conditions: 1 hour at rt, 7-point dose response. An outline of the steps:
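Cysteine engagement was read by targeted TMT MS3 of the IA-DTB-labelled, streptavidin-enriched C242 tryptic peptide. Beforehand, Jurkat lysate was exposed to a 7-point 1:5 compound series for 1 h at rt, then to 200 μM IA-DTB for 1 h. Reporter S/N curves gave TE50.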

T1 sequence (P42336 whole entry): as the sequence (P42336 whole entry) above
T1 sequence (P27986 whole entry partner): as the sequence (P27986 whole entry partner) above

For `COc1cccc(COc2cccc(-c3cc(Cl)ccc3S(=O)(=O)N3CCC(F)(C(=O)N[C@@H](C)/C=C\S(C)(=O)=O)CC3)c2)c1` [Compound 261, (S,Z)-1-((5-chloro-3′-((3-methoxybenzyl)oxy)-[1,1′-biphenyl]-2-yl)sulfonyl)-4-fluoro-N-(4-(methylsulfonyl)but-3-en-2-yl)piperidine-4-carboxamide], the IC50 was 480 nM on PIK3CA and 730 nM against PIK3CA_C242.

For `COc1ccc(Cl)c(-c2cc(N(C)C)ccc2S(=O)(=O)N2CCC(F)(C(=O)N[C@@H](C)/C=C\S(C)(=O)=O)CC2)c1` [Compound 87, (S,Z)-1-((2′-chloro-5-(dimethylamino)-5′-methoxy-[1,1′-biphenyl]-2-yl)sulfonyl)-4-fluoro-N-(4-(methylsulfonyl)but-3-en-2-yl)piperidine-4-carboxamide], the IC50 at PIK3CA is 390 nM; on PIK3CA_C242, 400 nM.

`COc1cccc(-c2cc(Cl)ccc2S(=O)(=O)N2CCC(C)(C(=O)N[C@H](C)/C=C\S(C)(=O)=O)CC2)c1` [Compound 203, (R,Z)-1-((5-chloro-3′-methoxy-[1,1′-biphenyl]-2-yl)sulfonyl)-4-methyl-N-(4-(methylsulfonyl)but-3-en-2-yl)piperidine-4-carboxamide]: the IC50 is 980 nM on PIK3CA and 1110 nM against PIK3CA_C242.

On to `COCc1cccc(-c2cc(Cl)ccc2S(=O)(=O)N2CCC(F)(C(=O)N[C@@H](C)/C=C\S(C)(=O)=O)CC2)c1` [Compound 126, (S,Z)-1-((5-chloro-3′-(methoxymethyl)-[1,1′-biphenyl]-2-yl)sulfonyl)-4-fluoro-N-(4-(methylsulfonyl)but-3-en-2-yl)piperidine-4-carboxamide], for which the IC50 on PIK3CA was found to be 430 nM; against PIK3CA_C242, 816 nM.

Consider `COc1cccc(-c2cc(Cl)ccc2S(=O)(=O)N2CCC(F)(C(=O)N[C@@H](C)/C=C\S(C)(=O)=O)CC2)c1` [Compound 1, (S,Z)-1-((5-chloro-3′-methoxy-[1,1′-biphenyl]-2-yl)sulfonyl)-4-fluoro-N-(4-(methylsulfonyl)but-3-en-2-yl)piperidine-4-carboxamide], for which the IC50 came out at 110 nM on PIK3CA and 246 nM against PIK3CA_C242.

Take `COc1cc(-c2ccccc2Cl)c(S(=O)(=O)N2CCC(F)(C(=O)N[C@H](C)/C=C\S(C)(=O)=O)CC2)cc1OC` [Compound 202, (R,Z)-1-((2′-chloro-4,5-dimethoxy-[1,1′-biphenyl]-2-yl)sulfonyl)-4-fluoro-N-(4-(methylsulfonyl)but-3-en-2-yl)piperidine-4-carboxamide]: the IC50 at PIK3CA and against PIK3CA_C242 was 180 nM in each case.

With `Cc1ccccc1-c1cc(N(C)C)ccc1S(=O)(=O)N1CCC(F)(C(=O)N[C@H](C)/C=C\S(C)(=O)=O)CC1` [Compound 93, (R,Z)-1-((5-(dimethylamino)-2′-methyl-[1,1′-biphenyl]-2-yl)sulfonyl)-4-fluoro-N-(4-(methylsulfonyl)but-3-en-2-yl)piperidine-4-carboxamide], the values for the IC50 at PIK3CA and at PIK3CA_C242 were 150 nM and 75.5 nM, respectively.

Turning to `COc1ccc(Cl)c(-c2cc(Cl)ccc2S(=O)(=O)N2CCC(F)(C(=O)N[C@@H](C)/C=C\S(C)(=O)=O)CC2)c1` [Compound 16, (S,Z)-1-((2′,5-dichloro-5′-methoxy-[1,1′-biphenyl]-2-yl)sulfonyl)-4-fluoro-N-(4-(methylsulfonyl)but-3-en-2-yl)piperidine-4-carboxamide], the results for the IC50 at PIK3CA and at PIK3CA_C242 were 200 nM and 210 nM, respectively.

As for `CC[C@@H](/C=C\S(C)(=O)=O)NC(=O)C1(F)CCN(S(=O)(=O)c2ccc(Cl)cc2-c2ccccc2)CC1` [Compound 84, (S,Z)-1-((5-chloro-[1,1′-biphenyl]-2-yl)sulfonyl)-4-fluoro-N-(1-(methylsulfonyl)pent-1-en-3-yl)piperidine-4-carboxamide], the IC50 on PIK3CA was 510 nM; against PIK3CA_C242, 450 nM.

The values above are taken from US20250026721A1, “COMPOUNDS AND METHODS FOR MODULATING RAS-PI3K” (Vividion Therapeutics, Inc., priority 2023, published 2025).
